Laboratory results from patent US20150209313A1 (priority 2014, published 2015).
“Also recorded” adds a separate entry of the source. Where two headings read alike, the source gives them in different places.

Tests used:
[1] = molecular target: neuraminidase, Influenza Virus A/California/07/2009 H1N1 (Oseltamivir sensitive) (Influenza A virus (A/California/07/2009(H1N1)), UniProt C3W6G3); format: biochemical
[2] = tested on: Influenza Virus A/California/07/2009 H1N1; format: cell-based
[3] = tested on: Influenza Virus A/Maryland/04/2011 H1N1; format: cell-based

CCOC(=O)C1=C[C@@H](OC(CC)CC)[C@H](NC(C)=O)[C@@H](N)C1 [Oseltamivir]
Average Fluorescence ([1]; 0.005 nM): 66385.00
Average Fluorescence ([1]; 0.05 nM): 56340.00
Average Fluorescence ([1]; 0.5 nM): 32060.00
Average Fluorescence ([1]; 5 nM): 7802.00
Average Fluorescence ([1]; 50 nM): 1215.00
Average Fluorescence ([1]; 500 nM): 354.00
Average Fluorescence ([1]; 5,000 nM): 179.00
Average Fluorescence ([1]; 50,000 nM): 365.00
plaque inhibitory effect (in words) [2]: sensitive to this drug to 1 μM; also recorded: inhibitory effects
plaque inhibitory effect (in words) [3]: only partially sensitive; also recorded: reduced oseltamivir susceptibility
